pEC50, pIC50: −log10 of the molar value. Values joined by “and” are separate entries in the source; they are usually repeats but may differ in a detail not shown here. Identical values can stand only once.

Assay [1] concerns the target T1, CD73 (Homo sapiens (Human), UniProt P21589). In words: MDA-MB-231 Cell Based CD73 Activity Assay. The conditions noted are these: MDA-MB-231-GFP cells, RPMI medium with 10% human plasma, 200 uM AMP. The procedure:
MDA-MB-231 Cell Based CD73 Activity Assay
MDA-MB-231-GFP cells were seeded in 384-well plates (Greiner 781946) at a density of 10000 cells per well in 50 μL of RPMI medium with 10% HP (human plasma). Cells were plated into assay plate with compounds pre-spotted, for an overnight compound treatment. 50 μL of 400 μM AMP (final concentration 200 μM) using a Bio-tek dispenser. Plates were incubated for 100 mins. […] The samples were run using Rapid fire.

Assay [2] concerns the target T1, CD73. As to the kind of experiment: CD73 Biochemical IC50 Assay. The conditions noted are these: CD73 0.3 nM, AMP 15 uM, 25 mM Tris pH 7.4, 5 mM MgCl2. Here is the method:
CD73 Biochemical IC50 Assay
Compound serial dilutions were pre-spotted into Thermo Nunc assay plate. 50 μL CD73 enzyme buffer (CD73 purchased from R&D system=0.6 nM, 25 mM Tris, pH 7.4, 5 mM MgCl2) was added into the assay plate and incubated for 15 mins. […] The samples were run using Rapid fire.

The target in assay [3] is T1, CD73. In words: MDA-MB-231 Cell Based CD73 Activity Assay (DMEM). The conditions noted are these: MDA-MB-231-GFP cells, DMEM medium with 10% human plasma, 200 uM AMP.

T1 sequence (P21589 27-574): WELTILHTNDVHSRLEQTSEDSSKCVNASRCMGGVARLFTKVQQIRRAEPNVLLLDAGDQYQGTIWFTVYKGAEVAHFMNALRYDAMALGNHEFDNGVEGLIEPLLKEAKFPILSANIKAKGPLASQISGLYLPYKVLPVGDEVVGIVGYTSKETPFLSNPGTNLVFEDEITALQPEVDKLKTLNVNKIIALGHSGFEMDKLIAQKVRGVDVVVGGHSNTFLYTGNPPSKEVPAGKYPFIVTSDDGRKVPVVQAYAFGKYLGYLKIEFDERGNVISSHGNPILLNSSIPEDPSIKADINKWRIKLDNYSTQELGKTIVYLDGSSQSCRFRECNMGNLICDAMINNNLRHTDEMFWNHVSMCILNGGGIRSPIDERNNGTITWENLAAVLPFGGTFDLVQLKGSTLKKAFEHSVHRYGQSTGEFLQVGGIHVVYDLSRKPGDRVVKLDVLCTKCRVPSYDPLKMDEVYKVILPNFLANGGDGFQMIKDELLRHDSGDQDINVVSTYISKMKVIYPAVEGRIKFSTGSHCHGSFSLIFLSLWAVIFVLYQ

For the molecule “5-(8-((1S,2S)-2-(2,3,5-trifluorophenyl)cyclopropyl)imidazo[1,2-b]pyridazin-6-yl)pyrimidine-2,4(1H,3H)-dione and 5-(8-((1R,2R)-2-(2,3,5-trifluorophenyl)cyclopropyl)imidazo[1,2-b]pyridazin-6-yl)pyrimidine-2,4(1H,3H)-dione [Example 61]”, at CD73 [1], the pEC50 (usually the negative decadic logarithm of the EC50, by convention in mol/L) is 7.78. In addition, on CD73 [2], the negative logarithm of the IC50 (pIC50) (usually the IC50 on a negative log10 scale, so that one unit is a factor of ten) was 7.92.

On CD73 [1], “5-(8-((1S,2S)-2-phenylcyclopropyl)imidazo[1,2-b]pyridazin-6-yl)pyrimidine-2,4-(1H,3H)-dione and 5-(8-((1R,2R)-2-phenylcyclopropyl)imidazo[1,2-b]pyridazin-6-yl)pyrimidine-2,4-(1H,3H)-dione [Example 104]” showed a pEC50 of 7.64. Besides, the pIC50 at CD73 [2] is 6.71.

Regarding `N#Cc1cc([C@H]2C[C@@H]2c2cc(-c3c[nH]c(=O)[nH]c3=O)nn3ccnc23)ccc1F` (mixture of isomers) [Example 64, 5-((1S,2S)-2-(6-(2,4-dioxo-1,2,3,4-tetrahydropyrimidin-5-yl)imidazo[1,2-b]pyridazin-8-yl)cyclopropyl)-2-fluorobenzonitrile and 5-((1R,2R)-2-(6-(2,4-dioxo-1,2,3,4-tetrahydropyrimidin-5-yl)imidazo[1,2-b]pyridazin-8-yl)cyclopropyl)-2-fluorobenzonitrile], the pEC50 on CD73 [3] was 8.12; on CD73 [1] it was 8.54.

At CD73 [1], `O=c1[nH]cc(-c2cc([C@H]3C[C@@H]3C(F)(F)F)c3nccn3n2)c(=O)[nH]1` (mixture of isomers) [Example 107, 5-(8-((1S,2S)-2-(trifluoromethyl)cyclopropyl)imidazo[1,2-b]pyridazin-6-yl)pyrimidine-2,4(1H,3H)-dione and 5-(8-((1R,2R)-2-(trifluoromethyl)cyclopropyl)imidazo[1,2-b]pyridazin-6-yl)pyrimidine-2,4(1H,3H)-dione] had a pEC50 of 7.26.

As to `O=c1[nH]cc(-c2cc([C@H]3C[C@]3(F)c3ccccc3)c3nccn3n2)c(=O)[nH]1` (mixture of isomers) [Example 108, 5-(8-((1R,2R)-2-fluoro-2-phenylcyclopropyl)imidazo[1,2-b]pyridazin-6-yl)pyrimidine-2,4(1H,3H)-dione and 5-(8-((1S,2S)-2-fluoro-2-phenylcyclopropyl)imidazo[1,2-b]pyridazin-6-yl)pyrimidine-2,4(1H,3H)-dione], at CD73 [1], the pEC50 was 7.62.

Consider `COC[C@H]1C[C@@H]1c1cc(-c2c[nH]c(=O)[nH]c2=O)nn2ccnc12` (racemic) [Example 4, 5-(8-((1S,2S)-2-(methoxymethyl)cyclopropyl)imidazo[1,2-b]pyridazin-6-yl)pyrimidine-2,4(1H,3H)-dione and 5-(8-((1R,2R)-2-(methoxymethyl)cyclopropyl)imidazo[1,2-b]pyridazin-6-yl)pyrimidine-2,4(1H,3H)-dione], for which, on CD73 [1], the negative logarithm of the EC50 (pEC50) was 6.72 and 6.54. The pIC50 on CD73 [2] was 6.71 and 6.64.

For `O=c1[nH]cc(-c2cc([C@H]3CC34CCC4)c3nccn3n2)c(=O)[nH]1` (racemic) [Example 5, (S)-5-(8-(spiro[2.3]hexan-1-yl)imidazo[1,2-b]pyridazin-6-yl)pyrimidine-2,4(1H,3H)-dione and (R)-5-(8-(spiro[2.3]hexan-1-yl)imidazo[1,2-b]pyridazin-6-yl)pyrimidine-2,4(1H,3H)-dione], the pEC50 on CD73 [1] was 5.70 and 5.60. For the same molecule, at CD73 [2], the pIC50 is 5.81 and 5.60.

As for `CC(C)(C)[C@H]1C[C@@H]1c1cc(-c2c[nH]c(=O)[nH]c2=O)nn2ccnc12` (racemic) [Example 6, 5-(8-((1S,2S)-2-(tert-butyl)cyclopropyl)imidazo[1,2-b]pyridazin-6-yl)pyrimidine-2,4-(1H,3H)-dione and 5-(8-((1R,2R)-2-(tert-butyl)cyclopropyl)imidazo[1,2-b]pyridazin-6-yl)pyrimidine-2,4-(1H,3H)-dione], on CD73 [1], the pEC50 is 6.74. Besides, the pIC50 on CD73 [2] was 6.79.

In the case of `O=c1[nH]cc(-c2cc([C@H]3C[C@@H]3C3CC3)c3nccn3n2)c(=O)[nH]1` (racemic) [Example 8, 5-(8-((1R,2S)-[1,1′-bi(cyclopropan)]-2-yl)imidazo[1,2-b]pyridazin-6-yl)pyrimidine-2,4(1H,3H)-dione and 5-(8-((1S,2R)-[1,1′-bi(cyclopropan)]-2-yl)imidazo[1,2-b]pyridazin-6-yl)pyrimidine-2,4(1H,3H)-dione], on CD73 [1], the negative-log EC50 (pEC50) is 7.44 and 7.33. For the same molecule, the pIC50 against CD73 [2] is 7.54 and 7.34.

`O=c1[nH]cc(-c2cc([C@H]3C[C@@H]3c3cccc(C(F)(F)F)c3)c3nccn3n2)c(=O)[nH]1` (racemic) [Example 41, 5-[8-[(1S,2S)-2-[3-(trifluoromethyl)phenyl]cyclopropyl]imidazo[1,2-b]pyridazin-6-yl]-1H-pyrimidine-2,4-dione and 5-[8-[(1R,2R)-2-[3-(trifluoromethyl)phenyl]cyclopropyl]imidazo[1,2-b]pyridazin-6-yl]-1H-pyrimidine-2,4-dione] gave a pEC50 on CD73 [1] of 7.73. The molecule also gave a pIC50 on CD73 [2] of 7.21.

At CD73 [1], `O=c1[nH]cc(-c2cc([C@H]3C[C@@H]3c3ccc(C4CC4)cc3)c3nccn3n2)c(=O)[nH]1` (racemic) [Example 45, 5-(8-((1S,2S)-2-(4-cyclopropylphenyl)cyclopropyl)imidazo[1,2-b]pyridazin-6-yl)pyrimidine-2,4(1H,3H)-dione and 5-(8-((1R,2R)-2-(4-cyclopropylphenyl)cyclopropyl)imidazo[1,2-b]pyridazin-6-yl)pyrimidine-2,4(1H,3H)-dione] had a pEC50 of 8.18. Also, the pIC50 at CD73 [2] is 7.49.

With `O=c1[nH]cc(-c2cc([C@H]3C[C@@H]3c3cccc(OC(F)(F)F)c3)c3nccn3n2)c(=O)[nH]1` (racemic) [Example 47, 5-(8-((1S,2S)-2-(3-(trifluoromethoxy)phenyl)cyclopropyl)imidazo[1,2-b]pyridazin-6-yl) pyrimidine-2,4(1H,3H)-dione and 5-(8-((1R,2R)-2-(3-(trifluoromethoxy)phenyl)cyclopropyl)imidazo[1,2-b]pyridazin-6-yl) pyrimidine-2,4(1H,3H)-dione], the pEC50 at CD73 [1] is 7.86. The molecule also showed a negative-log IC50 (pIC50) on CD73 [2] of 7.33.

Consider `O=c1[nH]cc(-c2cc([C@H]3C[C@@H]3c3cc(F)cc(F)c3)c3nccn3n2)c(=O)[nH]1` (racemic) [Example 60, 5-(8-((1S,2S)-2-(3,5-difluorophenyl)cyclopropyl)imidazo[1,2-b]pyridazin-6-yl)pyrimidine-2,4(1H,3H)-dione and 5-(8-((1R,2R)-2-(3,5-difluorophenyl)cyclopropyl)imidazo[1,2-b]pyridazin-6-yl)pyrimidine-2,4(1H,3H)-dione], for which the pEC50 at CD73 [1] was 8.19. The pIC50 against CD73 [2] was 7.90.

Regarding `O=c1[nH]cc(-c2cc([C@H]3C[C@@H]3c3cc(F)ccc3F)c3nccn3n2)c(=O)[nH]1` (racemic) [Example 65, 5-(8-((1S,2S)-2-(2,5-difluorophenyl)cyclopropyl)imidazo[1,2-b]pyridazin-6-yl)pyrimidine-2,4(1H,3H)-dione and 5-(8-((1R,2R)-2-(2,5-difluorophenyl)cyclopropyl)imidazo[1,2-b]pyridazin-6-yl)pyrimidine-2,4(1H,3H)-dione], on CD73 [1], the pEC50 was 8.17. In addition, the pIC50 against CD73 [2] was 7.88.

For the molecule `O=c1[nH]cc(-c2cc([C@H]3C[C@@H]3c3cccc4ccccc34)c3nccn3n2)c(=O)[nH]1` (racemic) [Example 74, 5-[8-[(1S,2S)-2-(1-naphthyl)cyclopropyl]imidazo[1,2-b]pyridazin-6-yl]-1H-pyrimidine-2,4-dione and 5-[8-[(1R,2R)-2-(1-naphthyl)cyclopropyl]imidazo[1,2-b]pyridazin-6-yl]-1H-pyrimidine-2,4-dione], at CD73 [1], the negative-log EC50 (pEC50) is 6.27. Also, at CD73 [2], the negative-log IC50 (pIC50) is 6.77.

Take `O=c1[nH]cc(-c2cc([C@H]3C[C@@H]3c3ccc(F)cc3)c3ncc(F)n3n2)c(=O)[nH]1` (racemic) [Example 76, 5-[3-fluoro-8-[(1S,2S)-2-(4-fluorophenyl)cyclopropyl]imidazo[1,2-b]pyridazin-6-yl]-1H-pyrimidine-2,4-dione and 5-[3-fluoro-8-[(1R,2R)-2-(4-fluorophenyl)cyclopropyl]imidazo[1,2-b]pyridazin-6-yl]-1H-pyrimidine-2,4-dione]: the pEC50 on CD73 [1] was 8.61. The molecule further showed a pIC50 against CD73 [2] of 7.58.

On CD73 [1], `O=c1[nH]cc(-c2cc([C@H]3C[C@@H]3c3ccc(F)c(C(F)(F)F)c3)c3nccn3n2)c(=O)[nH]1` (racemic) [Example 95, 5-(8-((1S,2S)-2-(4-fluoro-3-(trifluoromethyl)phenyl)cyclopropyl)imidazo[1,2-b]pyridazin-6-yl)pyrimidine-2,4(1H,3H)-dione and 5-(8-((1R,2R)-2-(4-fluoro-3-(trifluoromethyl)phenyl)cyclopropyl)imidazo[1,2-b]pyridazin-6-yl)pyrimidine-2,4(1H,3H)-dione] gave a pEC50 of 7.41. Moreover, the pIC50 at CD73 [2] was 7.31.

`O=c1[nH]cc(-c2cc(N3C[C@@H](F)[C@@H](F)C3)c3nccn3n2)c(=O)[nH]1` [Example 77, 5-[8-[(3S,4R)-3,4-difluoropyrrolidin-1-yl]imidazo[1,2-b]pyridazin-6-yl]-1H-pyrimidine-2,4-dione and 5-[8-[(3R,4S)-3,4-difluoropyrrolidin-1-yl]imidazo[1,2-b]pyridazin-6-yl]-1H-pyrimidine-2,4-dione]: the results for the pEC50 at CD73 [3] and at CD73 [1] were 7.55 and 7.87, respectively.

The record behind these values is US20240043427A1 (Gilead Sciences, Inc., priority 2020, published 2024).
